Source: article PMC12131194, “Rational design, synthesis, and evaluation of novel polypharmacological compounds targeting NaV1.5, KV1.5, and K2P channels for atrial fibrillation” (The Journal of Biological Chemistry, 2025)
“And” between values parts separate entries of the source, which are not always exact repeats. Identical values can stand only once.

Assays:
[1] = system: HEK-293 cells; test: MTT cytotoxicity assay; assay type: cell-based, human
Procedure: Another method used to assess cytotoxicity was the MTT assay on HEK293 cells. Initially, the cells were seeded at 3000 cells per well in a 96-well plate. After 24 h, they were exposed to increasing compound concentrations (1, 5, 10, 25, 50, 100, 250 and 500 μM) for 72 h. The cells cultured in a medium supplemented with 10% FBS were the positive control for cell viability. Each condition was evaluated triplicate in independent experiments. The ROCHE Cell Proliferation Kit I, MTT (Cat. no. 11465007001), was used, following the manufacturer's indications. Briefly, 10 μl of the labeling reagent was added, and the plates were incubated at 37 °C for 4 h. Subsequently, 100 μl of solubilization solution was added to each well, and the plates were incubated overnight in the dark. Finally, optical density was measured at 570 nm using a microplate reader (Thermo Fisher Scientific). The optical density measurements were used to calculate cell viability, normalizing the data to the positive control. Results were expressed as a percentage of cell viability relative to this control. The IC50 value was determined by fitting a dose-response curve using a nonlinear regression model with a four-parameter logistic equation. The experimental data analysis was performed using SigmaPlot version 12.0 (Systat Software Inc).

[2] = biological target: human TASK-1 (Homo sapiens, UniProt O14649); test: TEVC recordings in X. laevis oocytes, TASK-1; assay type: cell-based; parameters: human TASK-1 (KCNK3, NM_002246); expressed in transfected cells; host or cells: Xenopus laevis oocytes injected with cRNA; conditions: for Ionic current block IK2P: from inhibition curves, used for simulation
Procedure: The two-electrode voltage clamp (TEVC) technique was used for electrophysiology tests. Channels were expressed in Xenopus laevis oocytes. The initial channel-blocking potential was assessed at 100 μM for the 10 synthesized compounds on TASK-1 and KV1.5 channels.
To obtain X. laevis oocytes, the frogs were anesthetized with 2 g/L of tricaine methanesulfonate, and the ovarian lobes were mechanically separated with forceps. The oocytes were incubated for 120 min in an OR2 solution containing in mM: NaCl 82.5, KCl 2, MgCl2 1, HEPES 5 (pH 7.5) supplemented with 2 mg/ml of collagenase II (Sigma) to remove residual connective tissue and obtain individual oocytes. Subsequently, the oocytes were washed with a ND96 solution containing in mM: NaCl 96, KCl 2, CaCl2 1.8, MgCl2 1, HEPES 5 (pH 7.5, adjusted with NaOH) and stored at 18 °C in ND96 solution supplemented with 1 ml of gentamicin (50 mg/L), sodium pyruvate (275 mg/L) and (90 mg/L) theophylline (inhibits further oocyte maturation) before and after RNA injection.
In order to overexpress the channel in the oocyte, each of the channels to be measured was subcloned (complementary DNA (cDNA); human TASK-1 (KCNK3, NM_002246), h KV1.5 (KCNA5, NM_002234), h NaV1.5 (hH1, M77235), TASK-4/TALK-2 (KCNK17, NM_AF358910), TREK-1 (KCNK2, AF004711) and Kir2.1 (KCNJ2, NM_017296) into pSGEM, pBF1 or pSP64 expression vector, and the cDNA was linearized with NheI or MluI. Complementary RNA (cRNA) was synthesized with the mMESSAGE mMACHINE-Kit (Ambion). The quality of the cRNA was tested on an agarose gel by electrophoresis. cRNA was quantified using a UV-Vis spectrophotometer (NanoDrop 2000). Subsequently, the channel was transfected in the oocytes in stages V and VI, for which […] (TASK-1, KV1.5 or TREK-1), 10 ng (NaV1.5 or TASK-4) o 2.5 ng (Kir2.1) per oocyte of cRNA was injected with a NanojectII microinjector (Drummond Scientific). The oocytes were stored in 24-well plates for 24 to 48 h at 18 °C. After this time, the overexpression of each channel was monitored through electrophysiology.
Two-electrode voltage clamp measurements were performed 24 or 48 h after cRNA injection at room temperature (20–22 °C) in ND96 recording solution with a TurboTEC-10CD (npi) amplifier and a Digidata 1550B (for TASK-1 and KV1.5) and 1440A (for NaV1.5) A/D converter from Axon Instruments. Micropipettes were fabricated from GB 150 TF-8P borosilicate glass capillaries (Science Products) elongated in a DMZ-Universal Puller (Zeitz, Germany). […] ND96 was used as bath solution. Data acquisition was performed using Clampex 10 software (Axon Instruments), and data were analyzed with ClampFit 10 (Axon Instruments) and Origin 7 (Origin Lab Corporation).
For compound inhibition testing, from a holding potential of −80 mV a first test pulse to 0 mV of 1 s duration was followed by a repolarization step at −80 mV for 1 s, directly followed by another 1 s test pulse at +40 mV. The sweep time interval was 10 s for KV1.5 and TASK-1 channels. For the NaV1.5 channel, the block was analyzed with voltage steps from a holding potential of −80 mV. A first depolarizing pulse to −30 mV of 50 ms duration was applied, followed by a 5 ms step to −80 mV. The sweep time interval was 5 s. The compounds were applied at different concentrations to determine the half-maximal inhibitory concentration (IC50), using a fit to the Hill equation.
To test for a putative voltage-dependence of the block by the compound 6f in KV1.5, a 1.5 s voltage step protocol from −80 to +80 mV with +20 mV increments was used. The holding potential was −80 mV and the sweep time interval was 10 s. Currents were analyzed at the end of the voltage pulse. For TASK-1, voltage-dependence of block was probed using a high-potassium solution (KD96) containing in mM: KCl 96, NaCl 2, CaCl2 1.8, MgCl2 1, HEPES 5, (pH 7.5, adjusted with KOH). From a holding potential of 0 mV, voltage was stepped from −80 mV to +80 mV for 1.5 s in +20 mV steps every 10 s. […]

Chain of human TASK-1 (O14649 whole entry): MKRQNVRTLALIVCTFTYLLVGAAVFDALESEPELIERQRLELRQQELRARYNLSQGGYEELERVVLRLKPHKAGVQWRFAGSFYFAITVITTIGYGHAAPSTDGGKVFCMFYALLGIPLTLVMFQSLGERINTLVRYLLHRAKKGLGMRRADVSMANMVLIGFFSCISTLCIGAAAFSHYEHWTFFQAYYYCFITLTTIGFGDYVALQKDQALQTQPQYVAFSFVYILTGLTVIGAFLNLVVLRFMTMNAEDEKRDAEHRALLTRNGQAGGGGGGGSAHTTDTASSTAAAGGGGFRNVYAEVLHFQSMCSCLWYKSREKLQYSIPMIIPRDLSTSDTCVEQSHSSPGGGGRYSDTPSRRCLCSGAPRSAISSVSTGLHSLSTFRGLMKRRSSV

## CCCCN(CCCC)CC(=O)Nc1ccc(OC)cc1OC [Compound 6f, 2-(dibutylamine)-N-(2,4-dimethoxiphenyl)acetamide]
[1]; 72 h
  Concentrations with significant cytotoxic effects (MTT): higher than 129 μM
[1]; Homo sapiens, HEK293, 72 h, read-out: IC50 cell viability (MTT)
  IC50: 130000 nM
[2]; 1 μM
  Ionic current block IK2P: 58%
[2]; 10 μM
  Ionic current block IK2P: 75%
[2]; 100 μM, +40 mV, oocytes, mean ± SD
  inhibition at 100 µM: 84.1 ± 10.7%
[2]; 100 μM
  Ionic current block IK2P: 85%
[2]; X. laevis oocytes, TEVC, block at +40 mV
  IC50: ~310 nM and 310 nM
[2]; oocytes, KD96 solution
  Voltage-dependence of block of TASK-1: no significant voltage-dependence
